From US20230146455A1, “TREATMENT OF INFLAMMATORY DISEASES WITH PEPTIDES AND PHARMACEUTICAL COMPOSITIONS” (Yuyu Pharma, Inc., priority 2020, published 2023)
“And” between values parts separate entries of the source, which are not always exact repeats. Equal values may be shown once. Where a SMILES comes first, the peptide text is derived from it. [ ]: non-standard residue; d: D form. Hyp = O=C(O)[C@@H]1C[C@@H](O)CN1

Columns and labels:
[1] = system: IL-2; assay: Example 9 Luminex, LPS hPBMCs: IL-2; format: cell-based, human
Procedure: (§1) Treatment Human PBMCs were pretreated with YY-101, YDE-011 and YDE-043 or reference compound; Xiidra® at various concentration (ranging from 1 nM to 100 uM) for 2 h before stimulation. An equal volume of 0.5% DMSO was used as a vehicle control. Then, the cells were treated with LPS at 5 ug/ml. The supernatants from treated cells were harvested at 24 h and placed in a 96 well for Luminex cytokine & chemokine profiling using a Luminex 200 multiplex assay (Luminex; R&D system, USA).
(§2) The main study arm with triplicate wells per group in a 24-well plate: • 1. Blank • 2. PBMC: 0.5% DMSO • 3. PBMC+LPS (5 ug/ml) • 4. PBMC+YY-101 100 uM • 5. PBMC+YY-101 10 uM • 6. PBMC+YY-101 1 uM • 7. PBMC+YY-101 0.1 uM • 8. PBMC+YY-101 0.01 uM • 9. PBMC+LPS (5 ug/ml)+Xiidra®100 uM • 10. PBMC+LPS (5 ug/ml)+Xiidra® 10 uM • 11. PBMC+LPS (5 ug/ml)+Xiidra® 1 uM • 12. PBMC+LPS (5 ug/ml)+Xiidra®0.1 uM • 13. PBMC+LPS (5 ug/ml)+Xiidra®0.01 uM • 14. PBMC+LPS (5 ug/ml)+Xiidra®0.001 uM • 15. PBMC+LPS (5 ug/ml)+YY-101 100 uM • 16. PBMC+LPS (5 ug/ml)+YY-101 10 uM • 17. PBMC+LPS (5 ug/ml)+YY-101 1 uM • 18. PBMC+LPS (5 ug/ml)+YY-101 0.1 uM • 19. PBMC+LPS (5 ug/ml)+YY-101 0.01 uM • 20. PBMC+LPS (5 ug/ml)+YY-101 0.001 uM • 21. PBMC+LPS (5 ug/ml)+YDE-011 100 uM • 22. PBMC+LPS (5 ug/ml)+YDE-011 10 uM • 23. PBMC+LPS (5 ug/ml)+YDE-011 1 uM • 24. PBMC+LPS (5 ug/ml)+YDE-011 0.1 uM • 25. PBMC+LPS (5 ug/ml)+YDE-011 0.01 uM • 26. PBMC+LPS (5 ug/ml)+YDE-011 0.001 uM • 27. PBMC+LPS (5 ug/ml)+YDE-043 100 uM • 28. PBMC+LPS (5 ug/ml)+YDE-043 10 uM • 29. PBMC+LPS (5 ug/ml)+YDE-043 1 uM • 30. PBMC+LPS (5 ug/ml)+YDE-043 0.1 uM • 31. PBMC+LPS (5 ug/ml)+YDE-043 0.01 uM • 32. PBMC+LPS (5 ug/ml)+YDE-043 0.001 uM
(§3) Multiplex assay was used to measure 30 cytokines and chemokines. The 1:2, 1:10 and 1:200 diluted cell supernatant and serial dilution of the standard were dispensed into a 96 well plate at 50 ul/well. Then, the pre-mixed cocktail of antibody-coated magnetic beads was dispensed at 50 ul/well and incubated at room temperature for 2 h in a horizontal orbital microplate shaker at 800±500 rpm. The beads were washed using a magnetic device to prevent loss. The biotin-antibody was dispensed in 50 ul of each well and incubated at room temperature for 1 h in a shaker at 800±500 rpm. After washing, streptavidin-PE was added at 50 ul/well and incubated at room temperature for 30 min in a shaker under the same conditions. Finally, after washing, wash buffer (100 ul/well) was added to the plate and incubated in a shaker for 2 min. The Luminex™ 200 setting were set according to the manufacturer's protocol. The data was calculated with a standard five-parameter logistic nonlinear regression analysis of the data (xPonent software 4.2, USA). The levels of cytokine/chemokine are normalized to the live cell counts (1×10^5 cells/mL) and presented as concentrations per mL (pg/mL or ng/mL).

[2] = system: CCL3/MIP-1 alpha; assay: Example 9 Luminex, LPS hPBMCs: CCL3/MIP-1 alpha; format: cell-based, human
Procedure: as §1, §2, §3

[3] = PBMC + LPS(5 ug/ml) + test article 0.001 uM, Mean
[4] = PBMC + LPS(5 ug/ml) + test article 0.001 uM, single replicates
[5] = PBMC + LPS(5 ug/ml) + test article 0.01 uM, Mean
[6] = PBMC + LPS(5 ug/ml) + test article 0.01 uM, single replicates
[7] = PBMC + LPS(5 ug/ml) + test article 0.1 uM, Mean
[8] = PBMC + LPS(5 ug/ml) + test article 0.1 uM, single replicates
[9] = PBMC + LPS(5 ug/ml) + test article 1 uM, Mean
[10] = PBMC + LPS(5 ug/ml) + test article 1 uM, single replicates
[11] = PBMC + LPS(5 ug/ml) + test article 10 uM, Mean
[12] = PBMC + LPS(5 ug/ml) + test article 10 uM, single replicates
[13] = PBMC + LPS(5 ug/ml) + test article 100 uM, Mean
[14] = PBMC + LPS(5 ug/ml) + test article 100 uM, single replicates
[15] = PBMC + LPS(5 ug/ml) + test article 0.001 uM, individual replicates
[16] = PBMC + LPS(5 ug/ml) + test article 0.01 uM, individual replicates
[17] = PBMC + LPS(5 ug/ml) + test article 0.1 uM, individual replicates
[18] = PBMC + LPS(5 ug/ml) + test article 1 uM, individual replicates
[19] = PBMC + LPS(5 ug/ml) + test article 10 uM, individual replicates
[20] = PBMC + LPS(5 ug/ml) + test article 100 uM, individual replicates

How did the IL-2 conc/live cell [1, 3] turn out when `CC(C)C[C@H](NC(=O)CNC(=O)[C@H](CC(C)C)NC(=O)[C@H](CCC(N)=O)NC(=O)CNC(=O)[C@@H]1C[C@@H](O)CN1)C(=O)N[C@@H](C)C(=O)NCC(=O)N1CCC[C@H]1C(=O)N[C@@H](CCCCN)C(=O)O` [YDE-011] (H-[Hyp]GQLGLAGPK-OH) was run?
Its IL-2 conc/live cell is 0.0 pg/10^5.

And the “MFI, Bead name: IL-2” value [1, 3]?
Its value is 4.0.

And the IL-2 conc/live cell [1, 4]?
The IL-2 conc/live cell was 0.0 pg/10^5.

And the “MFI, Bead name: IL-2” value [1, 4]?
Its value is 4.0.

And the IL-2 conc/live cell [1, 5]?
Its IL-2 conc/live cell is 0.0 pg/10^5.

And the “MFI, Bead name: IL-2” value [1, 5]?
The value was 5.0.

And the IL-2 conc/live cell [1, 6]?
The IL-2 conc/live cell was 0.0 pg/10^5.

What about the “MFI, Bead name: IL-2” value [1, 6] of the same compound?
The value was 5.0.

What about the IL-2 conc/live cell [1, 7] of the same compound?
Its IL-2 conc/live cell is 0.0 pg/10^5.

And the “MFI, Bead name: IL-2” value [1, 7]?
Its value is 6.7.

And the IL-2 conc/live cell [1, 8]?
Its IL-2 conc/live cell is 0.0 pg/10^5.

What about the “MFI, Bead name: IL-2” value [1, 8] of the same compound?
Its value is 7.0 and 8.0 and 5.0.

What about the IL-2 conc/live cell [1, 9] of the same compound?
Its IL-2 conc/live cell is 0.0 pg/10^5.

And the “MFI, Bead name: IL-2” value [1, 9]?
The value was 5.3.

And the IL-2 conc/live cell [1, 10]?
Its IL-2 conc/live cell is 0.0 pg/10^5.

What about the “MFI, Bead name: IL-2” value [1, 10] of the same compound?
The value was 6.0 (2×) and 4.0.

What about the IL-2 conc/live cell [1, 11] of the same compound?
Its IL-2 conc/live cell is 0.0 pg/10^5.

What about the “MFI, Bead name: IL-2” value [1, 11] of the same compound?
Its value is 5.3.

And the IL-2 conc/live cell [1, 12]?
The IL-2 conc/live cell was 0.0 pg/10^5.

And the “MFI, Bead name: IL-2” value [1, 12]?
The value was 6.0 and 5.0 (2×).

What about the IL-2 conc/live cell [1, 13] of the same compound?
Its IL-2 conc/live cell is 0.0 pg/10^5.

What about the “MFI, Bead name: IL-2” value [1, 13] of the same compound?
Its value is 4.0.

And the IL-2 conc/live cell [1, 14]?
Its IL-2 conc/live cell is 0.0 pg/10^5.

And the “MFI, Bead name: IL-2” value [1, 14]?
Its value is 4.0 and 2.0 and 6.0.

And the Concentration [2, 3]?
The Concentration was 7478.7 pg/mL.

And the conc/live cell [2, 3]?
Its conc/live cell is 1414.4 pg/10^5.

What about the Concentration [2, 15] of the same compound?
The Concentration was 7525.9 pg/mL and 7321.9 pg/mL and 7588.4 pg/mL.

What about the conc/live cell [2, 15] of the same compound?
The conc/live cell was 1672.4 pg/10^5 and 1262.4 pg/10^5 and 1308.3 pg/10^5.

What about the Concentration [2, 5] of the same compound?
Its Concentration is 7584.1 pg/mL.

What about the conc/live cell [2, 5] of the same compound?
Its conc/live cell is 1304.0 pg/10^5.

What about the Concentration [2, 16] of the same compound?
The Concentration was 7600.8 pg/mL and 7525.9 pg/mL and 7625.5 pg/mL.

And the conc/live cell [2, 16]?
The conc/live cell was 1225.9 pg/10^5 and 1475.7 pg/10^5 and 1210.4 pg/10^5.

And the Concentration [2, 7]?
Its Concentration is 7103.9 pg/mL.

And the conc/live cell [2, 7]?
Its conc/live cell is 1250.7 pg/10^5.

And the Concentration [2, 17]?
The Concentration was 6974.8 pg/mL and 7334.8 pg/mL and 7002.2 pg/mL.

And the conc/live cell [2, 17]?
The conc/live cell was 1056.8 pg/10^5 and 1467.0 pg/10^5 and 1228.5 pg/10^5.

And the Concentration [2, 9]?
Its Concentration is 7537.7 pg/mL.

What about the conc/live cell [2, 9] of the same compound?
Its conc/live cell is 1505.0 pg/10^5.

What about the Concentration [2, 18] of the same compound?
Its Concentration is 7399.2 pg/mL and 7613.2 pg/mL and 7600.8 pg/mL.

What about the conc/live cell [2, 18] of the same compound?
Its conc/live cell is 1345.3 pg/10^5 and 1586.1 pg/10^5 and 1583.5 pg/10^5.

And the Concentration [2, 11]?
Its Concentration is 7734.7 pg/mL.

And the conc/live cell [2, 11]?
Its conc/live cell is 1473.3 pg/10^5.

What about the Concentration [2, 19] of the same compound?
Its Concentration is 7962.5 pg/mL and 7373.5 pg/mL and 7868.0 pg/mL.

What about the conc/live cell [2, 19] of the same compound?
The conc/live cell was 1474.5 pg/10^5 and 1271.3 pg/10^5 and 1674.0 pg/10^5.

What about the Concentration [2, 13] of the same compound?
The Concentration was 7968.8 pg/mL.

What about the conc/live cell [2, 13] of the same compound?
Its conc/live cell is 1313.3 pg/10^5.

What about the Concentration [2, 20] of the same compound?
Its Concentration is 8238.4 pg/mL and 8067.3 pg/mL and 7600.8 pg/mL.

What about the conc/live cell [2, 20] of the same compound?
The conc/live cell was 1350.6 pg/10^5 and 1322.5 pg/10^5 and 1266.8 pg/10^5.
